Activity calls are given as the source filed them.
Key:
[1] = biological target: T1, Carboxy-terminal domain RNA polymerase II polypeptide A small phosphatase 1 (Homo sapiens, UniProt Q9GZU7); test: CTDSP1 inhibitors, concentration-response, biochemical, absorbance readout, ultra-high-throughput screen actives (AID 540297); assay type: functional
T1 sequence (Q9GZU7 whole entry): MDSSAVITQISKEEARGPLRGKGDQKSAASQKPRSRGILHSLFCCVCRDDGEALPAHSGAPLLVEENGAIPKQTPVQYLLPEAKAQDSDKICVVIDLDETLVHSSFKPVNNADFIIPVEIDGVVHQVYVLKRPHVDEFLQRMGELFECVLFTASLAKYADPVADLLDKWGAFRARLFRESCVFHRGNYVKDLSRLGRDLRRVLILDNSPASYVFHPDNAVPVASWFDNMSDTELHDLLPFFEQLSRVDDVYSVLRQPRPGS

[2] = biological target: T2, Endoribonuclease toxin MazF (Escherichia coli K-12, UniProt P0AE70); test: substrate-only fluorescence increase artefacts – biochemical, single-stranded RNase substrate, counter-screen for MazEF activator project, dose response (AID 588502); assay type: functional
T2 sequence (P0AE70 whole entry): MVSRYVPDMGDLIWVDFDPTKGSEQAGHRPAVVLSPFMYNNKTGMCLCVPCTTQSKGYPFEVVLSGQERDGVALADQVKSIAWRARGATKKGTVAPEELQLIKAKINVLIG

[3] = biological target: T2, Endoribonuclease toxin MazF; test: activation of MazEF endoribonuclease cleavage – biochemical, fluorescence, single-stranded RNA substrate, uHTS hits, dose response (AID 588481); assay type: functional
[4] = blockers of bursicon-stimulated LGR2 cAMP reporter – cell-based, HEK293, CRE-luciferase reporter, cherry pick, set 2, dose response (AID 743343); assay type: functional;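 further: transfected cells were stimulated with diluted bursicon conditioned medium after compound addition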
[5] = viability loss in HEK293 cells – cell-based, plate reader, cherry-picked samples, cytotoxicity control, dose response (AID 743446); assay type: functional
[6] = toxicity toward HepG2 liver cells – cell-based, plate reader, cherry-pick, antagonist series, cytotoxicity control, dose response (AID 743416); assay type: functional
[7] = A549 cell cytotoxicity, dose response, cytotoxicity control, plate reader, cherry-pick, antagonist series (AID 743412); assay type: functional, cell-based
[8] = blockade of melanocortin 4 receptor signaling – cell-based, plate reader, cherry pick, counter-screen for LGR2 antagonist project, dose response (AID 743444); assay type: functional;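 further: transfected HEK 293 cells stimulated with alpha-MSH peptide; potency of inhibitors of the alpha-MSH evoked signal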
Aminopeptidase N = biological target: T3, Aminopeptidase N (Plasmodium falciparum FcB1/Columbia, UniProt O96935); test: malaria alanyl aminopeptidase activity blockers – biochemical, fluorogenic H-Leu-NHMec substrate, 1536-well (AID 1445); set-up: species or system Plasmodium falciparum 3D7, 3D7
T3 sequence (O96935 whole entry): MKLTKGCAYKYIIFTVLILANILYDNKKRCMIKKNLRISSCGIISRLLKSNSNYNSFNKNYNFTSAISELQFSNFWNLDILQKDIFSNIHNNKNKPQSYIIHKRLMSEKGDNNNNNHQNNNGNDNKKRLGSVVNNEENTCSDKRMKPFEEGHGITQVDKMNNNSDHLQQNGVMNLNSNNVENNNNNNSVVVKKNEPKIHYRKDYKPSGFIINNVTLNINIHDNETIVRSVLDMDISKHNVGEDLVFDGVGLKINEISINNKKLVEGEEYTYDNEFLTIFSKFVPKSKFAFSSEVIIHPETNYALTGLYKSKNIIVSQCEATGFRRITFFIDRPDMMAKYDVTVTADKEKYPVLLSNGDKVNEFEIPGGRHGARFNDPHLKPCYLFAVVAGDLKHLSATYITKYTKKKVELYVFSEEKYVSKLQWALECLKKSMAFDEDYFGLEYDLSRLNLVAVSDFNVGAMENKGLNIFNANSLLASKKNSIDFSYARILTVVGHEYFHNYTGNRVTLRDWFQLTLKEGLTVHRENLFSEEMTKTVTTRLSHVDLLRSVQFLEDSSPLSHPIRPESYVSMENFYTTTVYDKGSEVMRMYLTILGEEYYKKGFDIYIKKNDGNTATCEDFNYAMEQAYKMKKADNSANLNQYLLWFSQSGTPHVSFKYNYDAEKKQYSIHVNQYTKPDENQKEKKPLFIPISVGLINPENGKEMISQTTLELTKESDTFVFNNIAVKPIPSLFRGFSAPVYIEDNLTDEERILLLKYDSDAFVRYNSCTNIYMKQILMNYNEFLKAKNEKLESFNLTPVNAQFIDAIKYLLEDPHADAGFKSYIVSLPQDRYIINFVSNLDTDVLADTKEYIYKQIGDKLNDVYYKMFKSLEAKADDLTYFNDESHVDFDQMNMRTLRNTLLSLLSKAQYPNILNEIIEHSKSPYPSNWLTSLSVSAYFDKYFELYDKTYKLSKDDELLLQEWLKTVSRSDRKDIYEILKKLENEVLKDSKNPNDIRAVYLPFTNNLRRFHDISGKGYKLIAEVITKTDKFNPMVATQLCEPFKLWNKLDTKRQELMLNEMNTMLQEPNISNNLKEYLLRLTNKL

[9] = HIV-1 Vif–A3G interaction blockers – biochemical, TR-FRET, GST-Vif 1-94, biotin-A3G peptide, dose response retest, primary screen (AID 1117319); assay type: functional;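 further: TR-FRET signal of purified GST-Vif binding a biotinylated A3G peptide; inhibitors lower the FRET signal by blocking Vif and A3G binding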
[10] = P. falciparum Dd2 growth inhibitors, dose response, SYBR Green, cherry-picked samples (AID 1159567); assay type: functional, cell-based
[11] = toxicity to human hepatoma HepG2 cells – cell-based, cherry-picked samples, cytotoxicity control, dose response (AID 1159577); assay type: functional

Cc1ccc(C=C2C(=O)c3ccccc3C2=O)o1
IC50 [1]: 6.25 µM (active)
EC50 [2]: 85.2 µM (inactive)
EC50 [3]: > 99 µM (inactive)

COc1ccc2oc(C(=O)N3CCc4ccccc43)c(C)c2c1
AC50 [4]: 7.5 µM (active)
AC50 [5]: 33.9 µM (active)
AC50 [6]: 21.5 µM (active)
AC50 [7]: 20 µM (active)
AC50 [8]: 6.24 µM (active)

O=C(CSc1nc2c(c(=O)n1-c1ccc(Cl)cc1)SCC2)NCC1CCCO1 (stereo not given)
IC50 (Aminopeptidase N): 58.3 µM (active)

COCCN(Cc1cc2ccccc2nc1O)C(=O)c1ccccc1OC
IC50 [9]: > 100 µM (active)

COc1ccc(CCN2C(=O)c3cccc4c(C(=O)N5CCCCC5)ccc(c34)C2=O)cc1OC
AC50 [4]: 21.6 µM (active)
AC50 [5]: 16.7 µM (active)
AC50 [6]: > 52 µM (inactive)
AC50 [7]: > 52 µM (inactive)
AC50 [8]: 18 µM (active)

Nc1c(C(=O)C2CC2)sc2nc(-c3cccs3)cc(C(F)(F)F)c12
EC50 [2]: 10.6 µM (active)
EC50 [3]: > 99 µM (inactive)

Cc1ccc(/C=C2\SC(=S)N(CCC(=O)Nc3cccnc3)C2=O)cc1
EC50 [2]: > 99 µM (inactive)
EC50 [3]: > 99 µM (inactive)

O=S(=O)(c1ccccc1F)N1C[C@@H]2N[C@H](C1)[C@H]2c1ccc(/C=C/c2ccccc2)cc1
AC50 [10]: 3.4 µM (active)
AC50 [11]: 16.1 µM (active)

N#C[C@@H]1[C@H](c2ccccc2-c2cccc(F)c2)[C@H](CO)N1C(=O)NC1CCCC1
AC50 [10]: 6.42 µM (active)
AC50 [11]: > 39 µM (inactive)

C[C@@H]1CN([C@@H](C)CO)S(=O)(=O)c2ccc(/C=C/c3ccccc3)cc2O[C@H]1CN(C)Cc1cncnc1
AC50 [10]: 5.17 µM (active)
AC50 [11]: > 39 µM (inactive)
